From PubChem BioAssay (NCI)
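48-hour exposure; five concentrations; linearly interpolated endpoints. GI50: concentration for 50% inhibition of growth. TGI is the concentration that stops growth completely.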

What follows are compounds tested on EKVX NSCLC (assay: NCI tumour cell line growth inhibition, 48 h).
Compound COc1cc(C2=NOC(c3cc(OC)c(OC)c(OC)c3)C2)ccc1OCCCCOc1cc2c(cc1OC)C(=O)N1CCC[C@H]1C=N2 (some centres undefined) has a GI50 of 0.471 µM and a TGI of 5.43 µM. Work on N#Cc1ccc(NC(=O)Nc2ccc(Oc3ccc(NC(=O)Nc4ccc(C#N)cc4)cc3)cc2)cc1 yielded a GI50 of 10.3 µM and a TGI greater than 100 µM. Nc1cc(N)c2nc(-c3ccccc3)c(Nc3ccc(Cl)c(Cl)c3)nc2c1 was tested, and the GI50 was 3.83 µM and the TGI was 16.2 µM. With O=C(Cc1ccccc1)NN1C(=O)/C(=C\c2ccc([N+](=O)[O-])cc2)SC1=Nc1ccccc1 the TGI was greater than 100 µM.

Each compound was assayed on NCI-H460 lung (assay: NCI tumour cell line growth inhibition, 48 h).
For COc1cc(C2=NOC(c3cc(OC)c(OC)c(OC)c3)C2)ccc1OCCCCOc1cc2c(cc1OC)C(=O)N1CCC[C@H]1C=N2 (some centres undefined), the GI50 was 0.275 µM. For N#Cc1ccc(NC(=O)Nc2ccc(Oc3ccc(NC(=O)Nc4ccc(C#N)cc4)cc3)cc2)cc1, the GI50 was 3.24 µM and the TGI was greater than 100 µM. With COc1ccc(-c2c(C#N)c(N)nc3c2CCS(=O)(=O)c2ccccc2-3)cc1 the TGI was greater than 100 µM. In the case of Nc1cc(N)c2nc(-c3ccccc3)c(Nc3ccc(Cl)c(Cl)c3)nc2c1, the GI50 is reported as 8.27 µM and the TGI is reported as 22.9 µM. With O=C(Cc1ccccc1)NN1C(=O)/C(=C\c2ccc([N+](=O)[O-])cc2)SC1=Nc1ccccc1 the TGI was greater than 100 µM.

These compounds were tested on TK-10 renal (assay: NCI tumour cell line growth inhibition, 48 h).
For COc1cc(C2=NOC(c3cc(OC)c(OC)c(OC)c3)C2)ccc1OCCCCOc1cc2c(cc1OC)C(=O)N1CCC[C@H]1C=N2 (some centres undefined), the GI50 was 0.273 µM and the TGI was 0.704 µM. Work on N#Cc1ccc(NC(=O)Nc2ccc(Oc3ccc(NC(=O)Nc4ccc(C#N)cc4)cc3)cc2)cc1 yielded a GI50 of 23.2 µM and a TGI of 89 µM. Compound COc1ccc(-c2c(C#N)c(N)nc3c2CCS(=O)(=O)c2ccccc2-3)cc1 has a TGI greater than 100 µM. Nc1cc(N)c2nc(-c3ccccc3)c(Nc3ccc(Cl)c(Cl)c3)nc2c1 gave a GI50 of 13.7 µM and a TGI of 30.1 µM. With O=C(Cc1ccccc1)NN1C(=O)/C(=C\c2ccc([N+](=O)[O-])cc2)SC1=Nc1ccccc1 the TGI was greater than 100 µM.

These compounds were tested on OVCAR-3 ovarian (assay: NCI tumour cell line growth inhibition, 48 h).
COc1cc(C2=NOC(c3cc(OC)c(OC)c(OC)c3)C2)ccc1OCCCCOc1cc2c(cc1OC)C(=O)N1CCC[C@H]1C=N2 (some centres undefined) showed a GI50 of 0.322 µM and a TGI of 2.51 µM. N#Cc1ccc(NC(=O)Nc2ccc(Oc3ccc(NC(=O)Nc4ccc(C#N)cc4)cc3)cc2)cc1 showed a GI50 of 19.4 µM and a TGI greater than 100 µM. In the case of Nc1cc(N)c2nc(-c3ccccc3)c(Nc3ccc(Cl)c(Cl)c3)nc2c1, the GI50 is reported as 2.93 µM and the TGI is reported as 9.91 µM. For O=C(Cc1ccccc1)NN1C(=O)/C(=C\c2ccc([N+](=O)[O-])cc2)SC1=Nc1ccccc1, the TGI was greater than 100 µM.

What follows are compounds tested on A549 NSCLC (assay: NCI tumour cell line growth inhibition, 48 h).
For COc1cc(C2=NOC(c3cc(OC)c(OC)c(OC)c3)C2)ccc1OCCCCOc1cc2c(cc1OC)C(=O)N1CCC[C@H]1C=N2 (some centres undefined), the GI50 was 0.348 µM and the TGI was 11.9 µM. With N#Cc1ccc(NC(=O)Nc2ccc(Oc3ccc(NC(=O)Nc4ccc(C#N)cc4)cc3)cc2)cc1 the GI50 was 17.8 µM and the TGI was greater than 100 µM. COc1ccc(-c2c(C#N)c(N)nc3c2CCS(=O)(=O)c2ccccc2-3)cc1 showed a TGI greater than 100 µM. Nc1cc(N)c2nc(-c3ccccc3)c(Nc3ccc(Cl)c(Cl)c3)nc2c1 was tested, and the GI50 was 10.8 µM and the TGI was 34.7 µM. O=C(Cc1ccccc1)NN1C(=O)/C(=C\c2ccc([N+](=O)[O-])cc2)SC1=Nc1ccccc1 showed a TGI greater than 100 µM.

These compounds were tested on OVCAR-4 ovarian (assay: NCI tumour cell line growth inhibition, 48 h).
COc1cc(C2=NOC(c3cc(OC)c(OC)c(OC)c3)C2)ccc1OCCCCOc1cc2c(cc1OC)C(=O)N1CCC[C@H]1C=N2 (some centres undefined) was tested, and the GI50 was 0.439 µM and the TGI was 8.64 µM. N#Cc1ccc(NC(=O)Nc2ccc(Oc3ccc(NC(=O)Nc4ccc(C#N)cc4)cc3)cc2)cc1 showed a GI50 of 5.65 µM and a TGI greater than 100 µM. For COc1ccc(-c2c(C#N)c(N)nc3c2CCS(=O)(=O)c2ccccc2-3)cc1, the TGI was greater than 100 µM. In the case of Nc1cc(N)c2nc(-c3ccccc3)c(Nc3ccc(Cl)c(Cl)c3)nc2c1, the GI50 is reported as 11.1 µM and the TGI is reported as 47.8 µM. O=C(Cc1ccccc1)NN1C(=O)/C(=C\c2ccc([N+](=O)[O-])cc2)SC1=Nc1ccccc1 was tested, and the TGI was greater than 100 µM.

What follows are compounds tested on SNB-19 CNS (assay: NCI tumour cell line growth inhibition, 48 h).
Work on COc1cc(C2=NOC(c3cc(OC)c(OC)c(OC)c3)C2)ccc1OCCCCOc1cc2c(cc1OC)C(=O)N1CCC[C@H]1C=N2 (some centres undefined) yielded a GI50 of 1.31 µM. N#Cc1ccc(NC(=O)Nc2ccc(Oc3ccc(NC(=O)Nc4ccc(C#N)cc4)cc3)cc2)cc1 showed a GI50 of 20 µM and a TGI of 88.7 µM. For COc1ccc(-c2c(C#N)c(N)nc3c2CCS(=O)(=O)c2ccccc2-3)cc1, the TGI was greater than 100 µM. Work on Nc1cc(N)c2nc(-c3ccccc3)c(Nc3ccc(Cl)c(Cl)c3)nc2c1 yielded a GI50 of 12.9 µM and a TGI of 30.2 µM. O=C(Cc1ccccc1)NN1C(=O)/C(=C\c2ccc([N+](=O)[O-])cc2)SC1=Nc1ccccc1 gave a TGI greater than 100 µM.

The compounds below were run on MCF7 breast (assay: NCI tumour cell line growth inhibition, 48 h).
For COc1cc(C2=NOC(c3cc(OC)c(OC)c(OC)c3)C2)ccc1OCCCCOc1cc2c(cc1OC)C(=O)N1CCC[C@H]1C=N2 (some centres undefined), the GI50 was 0.255 µM and the TGI was 24.4 µM. Work on N#Cc1ccc(NC(=O)Nc2ccc(Oc3ccc(NC(=O)Nc4ccc(C#N)cc4)cc3)cc2)cc1 yielded a GI50 of 3.71 µM and a TGI greater than 100 µM. Nc1cc(N)c2nc(-c3ccccc3)c(Nc3ccc(Cl)c(Cl)c3)nc2c1 gave a GI50 of 4.96 µM and a TGI of 21.1 µM. Compound O=C(Cc1ccccc1)NN1C(=O)/C(=C\c2ccc([N+](=O)[O-])cc2)SC1=Nc1ccccc1 has a TGI greater than 100 µM.

These compounds were tested on 786-0 renal (assay: NCI tumour cell line growth inhibition, 48 h).
COc1cc(C2=NOC(c3cc(OC)c(OC)c(OC)c3)C2)ccc1OCCCCOc1cc2c(cc1OC)C(=O)N1CCC[C@H]1C=N2 (some centres undefined) gave a GI50 of 0.282 µM and a TGI of 0.913 µM. In the case of N#Cc1ccc(NC(=O)Nc2ccc(Oc3ccc(NC(=O)Nc4ccc(C#N)cc4)cc3)cc2)cc1, the GI50 is reported as 10.5 µM and the TGI is reported as 63.4 µM. Compound COc1ccc(-c2c(C#N)c(N)nc3c2CCS(=O)(=O)c2ccccc2-3)cc1 has a TGI greater than 100 µM. For Nc1cc(N)c2nc(-c3ccccc3)c(Nc3ccc(Cl)c(Cl)c3)nc2c1, the GI50 was 14.7 µM and the TGI was 37 µM. O=C(Cc1ccccc1)NN1C(=O)/C(=C\c2ccc([N+](=O)[O-])cc2)SC1=Nc1ccccc1 showed a TGI greater than 100 µM.

The compounds below were run on HOP-62 NSCLC (assay: NCI tumour cell line growth inhibition, 48 h).
For COc1cc(C2=NOC(c3cc(OC)c(OC)c(OC)c3)C2)ccc1OCCCCOc1cc2c(cc1OC)C(=O)N1CCC[C@H]1C=N2 (some centres undefined), the GI50 was 0.29 µM and the TGI was 0.709 µM. With N#Cc1ccc(NC(=O)Nc2ccc(Oc3ccc(NC(=O)Nc4ccc(C#N)cc4)cc3)cc2)cc1 the GI50 was 3.06 µM and the TGI was 20.6 µM. For Nc1cc(N)c2nc(-c3ccccc3)c(Nc3ccc(Cl)c(Cl)c3)nc2c1, the GI50 was 17.5 µM and the TGI was 38.4 µM. O=C(Cc1ccccc1)NN1C(=O)/C(=C\c2ccc([N+](=O)[O-])cc2)SC1=Nc1ccccc1 gave a TGI greater than 100 µM.

These compounds were tested on OVCAR-8 ovarian (assay: NCI tumour cell line growth inhibition, 48 h).
COc1cc(C2=NOC(c3cc(OC)c(OC)c(OC)c3)C2)ccc1OCCCCOc1cc2c(cc1OC)C(=O)N1CCC[C@H]1C=N2 (some centres undefined) was tested, and the GI50 was 0.39 µM and the TGI was 10.9 µM. With N#Cc1ccc(NC(=O)Nc2ccc(Oc3ccc(NC(=O)Nc4ccc(C#N)cc4)cc3)cc2)cc1 the GI50 was 14.4 µM and the TGI was greater than 100 µM. With COc1ccc(-c2c(C#N)c(N)nc3c2CCS(=O)(=O)c2ccccc2-3)cc1 the TGI was greater than 100 µM. Nc1cc(N)c2nc(-c3ccccc3)c(Nc3ccc(Cl)c(Cl)c3)nc2c1 showed a GI50 of 5.18 µM and a TGI of 79.8 µM. O=C(Cc1ccccc1)NN1C(=O)/C(=C\c2ccc([N+](=O)[O-])cc2)SC1=Nc1ccccc1 gave a TGI greater than 100 µM.

What follows are compounds tested on NCI-H226 lung (assay: NCI tumour cell line growth inhibition, 48 h).
Compound N#Cc1ccc(NC(=O)Nc2ccc(Oc3ccc(NC(=O)Nc4ccc(C#N)cc4)cc3)cc2)cc1 has a GI50 of 23.1 µM and a TGI greater than 100 µM. In the case of COc1ccc(-c2c(C#N)c(N)nc3c2CCS(=O)(=O)c2ccccc2-3)cc1, the TGI is reported as greater than 100 µM. For Nc1cc(N)c2nc(-c3ccccc3)c(Nc3ccc(Cl)c(Cl)c3)nc2c1, the GI50 was 17.5 µM and the TGI was 37.6 µM. Work on O=C(Cc1ccccc1)NN1C(=O)/C(=C\c2ccc([N+](=O)[O-])cc2)SC1=Nc1ccccc1 yielded a TGI greater than 100 µM.

These compounds were tested on SK-MEL-5 melanoma (assay: NCI tumour cell line growth inhibition, 48 h).
Compound COc1cc(C2=NOC(c3cc(OC)c(OC)c(OC)c3)C2)ccc1OCCCCOc1cc2c(cc1OC)C(=O)N1CCC[C@H]1C=N2 (some centres undefined) has a GI50 of 0.168 µM and a TGI of 0.319 µM. Work on N#Cc1ccc(NC(=O)Nc2ccc(Oc3ccc(NC(=O)Nc4ccc(C#N)cc4)cc3)cc2)cc1 yielded a GI50 of 20.2 µM and a TGI greater than 100 µM. For COc1ccc(-c2c(C#N)c(N)nc3c2CCS(=O)(=O)c2ccccc2-3)cc1, the TGI was greater than 100 µM. Nc1cc(N)c2nc(-c3ccccc3)c(Nc3ccc(Cl)c(Cl)c3)nc2c1 was tested, and the GI50 was 11 µM and the TGI was 25.5 µM. In the case of O=C(Cc1ccccc1)NN1C(=O)/C(=C\c2ccc([N+](=O)[O-])cc2)SC1=Nc1ccccc1, the TGI is reported as greater than 100 µM.

What follows are compounds tested on A498 renal (assay: NCI tumour cell line growth inhibition, 48 h).
COc1cc(C2=NOC(c3cc(OC)c(OC)c(OC)c3)C2)ccc1OCCCCOc1cc2c(cc1OC)C(=O)N1CCC[C@H]1C=N2 (some centres undefined) gave a GI50 of 0.194 µM and a TGI of 0.396 µM. With N#Cc1ccc(NC(=O)Nc2ccc(Oc3ccc(NC(=O)Nc4ccc(C#N)cc4)cc3)cc2)cc1 the GI50 was 15.9 µM and the TGI was 61.2 µM. Work on COc1ccc(-c2c(C#N)c(N)nc3c2CCS(=O)(=O)c2ccccc2-3)cc1 yielded a TGI greater than 100 µM. Compound Nc1cc(N)c2nc(-c3ccccc3)c(Nc3ccc(Cl)c(Cl)c3)nc2c1 has a GI50 of 12.1 µM and a TGI of 26.3 µM. O=C(Cc1ccccc1)NN1C(=O)/C(=C\c2ccc([N+](=O)[O-])cc2)SC1=Nc1ccccc1 showed a TGI greater than 100 µM.
